Data reported in patent US20240173285A1, “COMPOSITIONS COMPRISING EPA AND METHODS OF USING THE SAME FOR TREATING AND/OR PREVENTING ENDOTHELIAL DYSFUNCTION IN A SUBJECT” (Amarin Pharmaceuticals Ireland Limited, priority 2021, published 2024).

Legend:
HUVECs [1] = experiment: NO release from HUVECs measured with tandem porphyrinic nanosensors; assay type: cell-based, human; settings: for NO Release: then IL-6 12 ng/ml 24 h, calcium ionophore, mean ± SEM, N = 4-5
Experimental: (§1) Human pulmonary ECs (PECs) and umbilical vein ECs (HUVECs) were treated with vehicle or EPA (40/10 μM in PECs/HUVECs) and IL-6 (12 ng/ml) for 24 hours. Proteomic analysis was performed using liquid chromatography/mass spectroscopy. […] NO release was measured in HUVECs using tandem porphyrinic nanosensors following stimulation with calcium.
NO release from HUVECs was measured as previously described. Briefly, in parallel with the cellular preparations for proteomic analysis, HUVECs were stimulated with calcium ionophore and NO was measured using tandem porphyrinic nanosensors.

HUVECs [2] = experiment: Peroxynitrite (ONOO-) release from HUVECs measured with porphyrinic nanosensor; assay type: cell-based, human; settings: 10 μM 2 hours, then IL-6 12 ng/ml 24 h; for ONOO- Release: calcium ionophore, mean ± SEM, N = 4-5
Excerpt: FIG. 5 is a schematic illustration of the ONOO— assay. The nanosensor is used to quantitate endothelial NO and ONOO— release in real time and is made by depositing a sensing material on the tip of carbon fiber with a diameter of only 0.5 μm. The fiber is sealed with nonconductive epoxy and electrically connected to wires (gold, copper) with conductive silver epoxy. Conductive films of polymeric Ni(II) tetrakis (3-methoxy-4-hydroxyphenyl) porphyrin and Mn(III) paracyclophanylporphyrin were used for the NO and ONOO— sensors, respectively.
Release of ONOO— from HUVECs was measured as previously described. Briefly, in parallel with the cellular preparations for proteomic analysis, HUVECs were stimulated with calcium ionophore and ONOO— was measured using a porphyrinic nanosensor (FIG. 5).

[3] = tested on: umbilical vein ECs (HUVECs); experiment: Proteomic analysis (LC/MS) of HUVECs treated with EPA and IL-6 for 24 hours; assay type: cell-based, human; settings: EPA 10 μM + IL-6 12 ng/ml
Experimental: as §1, with “Human pulmonary ECs (PECs) and umbilical vein ECs (HUVECs) were treated with vehicle or EPA (40/10 μM in PECs/HUVECs) and IL-6 (12 ng/ml) for 24 hours. Proteomic analysis was performed using liquid chromatography/mass spectroscopy. […] Human” for “Human”

[4] = tested on: Human pulmonary ECs (PECs); experiment: Proteomic analysis (LC/MS) of pulmonary ECs treated with EPA and IL-6 for 24 hours; assay type: cell-based; settings: EPA 40 μM + IL-6 12 ng/ml
Experimental: as §1, with “Human pulmonary ECs (PECs) and umbilical vein ECs (HUVECs) were treated with vehicle or EPA (40/10 μM in PECs/HUVECs) and IL-6 (12 ng/ml) for 24 hours. Proteomic analysis was performed using liquid chromatography/mass spectroscopy. […] Human” for “Human”

Human PECs = experiment: Fatty acid content of PECs by GC/MS; assay type: cell-based; settings: PECs pretreated with EPA 40 μM, IL-6
Experimental: Human PECs were pretreated with vehicle or EPA (40 μM) for 2 hours, then challenged with IL-6 at 12 ng/ml for 24 hours. Proteomic analysis was performed using LC/MS to capture relative expression levels. Only significant changes in protein expression between treatment groups >2-fold were analyzed. Levels of intercellular adhesion molecule-1 (ICAM-1) were measured by immunochemistry. EPA, docosahexaenoic acid (DHA), docosapentaenoic acid (DPA), palmitic acid (PA), linoleic acid (LA) and arachidonic acid (AA) content was measured by GC/MS.

Human pulmonary ECs = experiment: Proteomic analysis (LC/MS) of pulmonary ECs treated with EPA after IL-6 exposure; assay type: cell-based; settings: IL-6 12 ng/ml 2 hours, then EPA 24 h
Experimental: Human pulmonary ECs were treated with vehicle or EPA for 24 h after exposure to IL-6 at 12 ng/ml for 2 hours. Proteomic analysis was performed using liquid chromatography/mass spectroscopy to capture relative expression levels. Only significant changes in protein expression between treatment groups >1-fold with a p-value less than 0.05 were analyzed.

[5] = tested on: heme oxygenase-1 (HMOX-1); experiment: HMOX-1 expression relative to IL-6 in HUVECs (LC/MS proteomics); assay type: cell-based, human; settings: 10 μM 2 hours, then IL-6 12 ng/ml 24 h
Experimental: (§2) HUVECs were treated with vehicle, EPA, or DHA (10 μM) for 2 hours, and then challenged with IL-6 (12 ng/ml) for 24 h hours. After incubation, cells were pelleted and frozen at −80° C. until proteomic analysis was performed. Cell pellets were lysed using methanol/chloroform extraction. Proteins were denatured, reduced, alkylated, and trypsin digested. Samples were then prepared for Tandem Mass Tag (TMT) 10plex labeling. A bicinchoninic acid (BCA) assay was performed on each sample to quantify the total protein in each sample, which is important to confirm equal amounts of each sample are added to the multiplex sample. Each peptide in a sample was given a unique, low molecular weight (typically 126-130 Da), and then the samples were combined. Relative protein expression levels among the various treatments were measured using LC/MS proteomic techniques. Following protein digest, peptides are separated over a reverse phase column and then identified based on their mass.
Each multiplexed sample was then fractionated to increase the overall protein coverage using high pH reversed phase fractionation and analyzed by LC/MS using a Dionex UltiMate 3000 RSLC in tandem with a Q-Exactive/Lumos Orbitrap Mass Spectrometer. The chromatography was performed using a 2-hour gradient on a Thermo Pepmap C18 column (100 Å pore size, 3.0 μm particle size, […]×150 mm) set at 50° C. […]

[6] = tested on: Platelet endothelial cell adhesion molecule 1 (PECAM-1); experiment: PECAM-1 expression relative to IL-6 in HUVECs (LC/MS proteomics); assay type: cell-based, human; settings: 10 μM 2 hours, then IL-6 12 ng/ml 24 h
Experimental: as §2, with “AA” for “DHA”, “mass. Each multiplexed sample was then fractionated to increase the overall protein coverage using high pH reversed phase fractionation and analyzed by LC/MS using a Dionex UltiMate 3000 RSLC in tandem with a Q-Exactive/Lumos Orbitrap Mass Spectrometer. The chromatography was performed using a 2-hour gradient on a Thermo Pepmap C18 column (100 Å pore size, 3.0 μm particle size, […]×150 mm) set at 50° C. […]” for “mass.”

[7] = Clinical study of human participants exposed to high-dose ethyl EPA; assay type: in vivo; settings: high-dose exposure
Excerpt: Based on a clinical study of human participants, the inventors have discovered that exposure to a high-dose ethyl EPA (i.e., […]) is associated with fewer anemia AEs and higher hemoglobin and hematocrit. High-dose ethyl EPA exposure is also associated with higher levels of the heme derivative bilirubin, which is a potent antioxidant. […] Both biliverdin and bilirubin are potent antioxidants, but bilirubin is likely the stronger of the two. Bilirubin can be converted back into biliverdin rather than being eliminated, thus perpetuating both compounds' antioxidant effects.

CC/C=C\C/C=C\C/C=C\C/C=C\C/C=C\C/C=C\CCC(=O)O [DHA, docosahexaenoic acid, reference compound]
NO Release (HUVECs [1]; 10 μM 2 hours): 404 ± 15 nM

IL-6: cytokine interleukin-6 used to challenge endothelial cells (12 ng/ml) [reference compound]
NO Release (HUVECs [1]; 10 μM 2 hours): 371 ± 14 nM
ONOO- Release (HUVECs [2]): 217 ± 10 nM

CC/C=C\C/C=C\C/C=C\C/C=C\C/C=C\CCCC(=O)O [EPA, eicosapentaenoic acid]
Platelet endothelial cell adhesion molecule (PECAM) downregulation [3]: 1.2 fold
heme-oxygenase-1 increase [3]: 1.6 fold
integrin alpha-V decrease [3]: 1.5 fold
superoxide dismutase increase [3]: 1.6 fold
Platelet endothelial cell adhesion molecule (PECAM) downregulation [4]: 1.2 fold
amyloid-beta precursor protein decrease [4]: 1.1 fold
heme-oxygenase-1 increase [4]: 1.9 fold
integrin alpha-V decrease [4]: 1.1 fold
thrombin receptor decrease [4]: 1.3 fold
increase of NO release compared to IL-6 alone (HUVECs [1]; 10 μM 2 hours, then IL-6 12 ng/ml 24 h (Example 5)): 13%
NO Release (HUVECs [1]; 10 μM 2 hours): 421 ± 12 nM
increase of NO release relative to IL-6 alone (HUVECs [1]; EPA 10 μM and IL-6 12 ng/ml 24 hours, calcium stimulation (Example 2)): 13%
reduction of PA (palmitic acid) levels (Human PECs): 34%
ACE level reduction (Human pulmonary ECs): 1.1 fold
ECE-1 level reduction (Human pulmonary ECs): 1.3 fold
Hsp90 increase compared to IL-6 (Human pulmonary ECs): 1.1 fold
caveolin-1 downregulation compared to IL-6 (Human pulmonary ECs): 1.3 fold
HMOX-1 Expression Relative to IL-6, Fold Change Increase [5]: 1.58 fold
upregulation of inducible HMOX-1 compared to IL-6 alone [5]: 160%
PECAM-1 Expression Relative to IL-6, Fold Change Increase [6]: 1.22 fold
decrease in PECAM-1 [6]: 120%
decrease of ONOO— release relative to IL-6 alone (HUVECs [2]): 17%
ONOO- Release (HUVECs [2]): 181 ± 10 nM

CCCCC/C=C\C/C=C\C/C=C\C/C=C\CCCC(=O)O [AA, arachidonic acid, reference compound]
ONOO- Release (HUVECs [2]): 194 ± 9 nM

CC/C=C\C/C=C\C/C=C\C/C=C\C/C=C\CCCC(=O)OCC [ethyl EPA, eicosapentaenoic acid ethyl ester]
anemia AEs [7]: fewer
